# According to patent US20030138946A1:
# Values joined by “and” are separate entries in the source; they are usually repeats but may differ in a detail not shown here. Identical values can stand only once. Ends that are not written are not given here.
# T1: K^bsol (soluble H-2 K^b with murine β-2 microglobulin) (Mus musculus, UniProt P01901)
# T1 construct: The cDNAs encoding K^b α1α2α3 domains (274 residues) and murine β-2 microglobulin (99 residues); made in house; host or cells: Drosophila S2/M3 cells, purified from culture supernatant
# T1 sequence (P01901 22-295): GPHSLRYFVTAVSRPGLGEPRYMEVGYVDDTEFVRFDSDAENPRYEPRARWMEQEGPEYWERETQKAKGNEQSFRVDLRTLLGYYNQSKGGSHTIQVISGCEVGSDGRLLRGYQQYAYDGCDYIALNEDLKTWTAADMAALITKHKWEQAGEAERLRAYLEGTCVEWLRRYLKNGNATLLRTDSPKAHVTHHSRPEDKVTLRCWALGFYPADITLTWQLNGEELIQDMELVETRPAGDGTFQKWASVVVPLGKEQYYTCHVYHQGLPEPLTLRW
# T1 sequence (P01887 21-119 partner): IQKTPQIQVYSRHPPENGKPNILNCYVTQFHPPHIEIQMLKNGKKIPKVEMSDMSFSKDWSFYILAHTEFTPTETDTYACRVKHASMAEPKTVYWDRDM
# T2: soluble H-2 K^b (K^bsol): heterodimer of truncated K^b heavy chain and murine β-2 microglobulin, purified from Drosophila cells (murine), P01901
# T2 chain 1: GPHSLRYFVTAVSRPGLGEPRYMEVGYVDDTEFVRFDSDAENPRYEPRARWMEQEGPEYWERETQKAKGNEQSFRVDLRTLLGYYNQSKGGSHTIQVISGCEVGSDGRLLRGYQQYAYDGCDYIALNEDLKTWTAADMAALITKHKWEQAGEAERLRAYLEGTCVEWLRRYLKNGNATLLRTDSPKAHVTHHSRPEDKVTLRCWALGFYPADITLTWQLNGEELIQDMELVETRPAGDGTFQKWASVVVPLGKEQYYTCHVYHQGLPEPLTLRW
# T2 chain 2: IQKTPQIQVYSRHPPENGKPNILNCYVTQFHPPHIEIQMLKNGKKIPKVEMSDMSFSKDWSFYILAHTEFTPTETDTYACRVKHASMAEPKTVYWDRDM
# Assays:
# [1] = target: L^d molecules complexed with p2Ca peptide, on transfected Drosophila S2 cells (mouse) (UniProt P01887); assay: cell-based or functional assay
# Sequence of L^d molecules complexed with p2Ca peptide, on transfected Drosophila S2 cells (mouse) (P01897 25-362, one chain of several): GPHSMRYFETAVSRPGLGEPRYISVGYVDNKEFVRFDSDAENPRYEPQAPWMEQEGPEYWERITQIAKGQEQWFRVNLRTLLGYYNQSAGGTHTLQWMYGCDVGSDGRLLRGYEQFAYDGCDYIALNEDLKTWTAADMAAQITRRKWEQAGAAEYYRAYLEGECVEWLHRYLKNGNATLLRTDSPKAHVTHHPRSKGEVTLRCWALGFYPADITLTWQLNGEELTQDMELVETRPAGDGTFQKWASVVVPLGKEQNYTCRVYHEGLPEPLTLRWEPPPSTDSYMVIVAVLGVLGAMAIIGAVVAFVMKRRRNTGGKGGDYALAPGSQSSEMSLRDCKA
# [2] = target: L^d molecules complexed with QL9 peptide, on the cell surface (mouse) (UniProt P01887); assay: cell-based or functional assay
# Sequence of L^d molecules complexed with QL9 peptide, on the cell surface (mouse) (P01897 25-362, one chain of several): as above
# [3] = target: recombinant biotinylated L^d immobilized on an avidin-coated support, with QL9 peptide (mouse) (UniProt P01897)
# Sequence of recombinant biotinylated L^d immobilized on an avidin-coated support, with QL9 peptide (mouse) (P01897 25-309): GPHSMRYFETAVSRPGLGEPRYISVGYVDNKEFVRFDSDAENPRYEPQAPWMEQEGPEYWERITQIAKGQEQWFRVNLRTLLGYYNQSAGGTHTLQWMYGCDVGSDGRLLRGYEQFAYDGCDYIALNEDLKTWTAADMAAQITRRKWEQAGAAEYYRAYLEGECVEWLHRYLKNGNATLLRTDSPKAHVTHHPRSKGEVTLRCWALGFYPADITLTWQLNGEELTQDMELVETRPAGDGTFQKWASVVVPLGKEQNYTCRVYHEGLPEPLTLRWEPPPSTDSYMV
# [4] = target: L^d molecules complexed with QL9 peptide, on the cell surface (mouse) (UniProt P01887)
# B3/CD8 T-cell hybridoma = assay: Antigen presentation assay with B3/CD8 T-cell hybridoma (IL-2 via CTLL 3H thymidine); format: cell-based, murine; conditions: peptide added to culture medium or protein osmotically loaded
# Protocol: Osmotic loading of SC2 and 3T3 cells with ovalbumin protein was carried out as described by Moore, et al., Cell 54: 777-785 (1988). The assay procedure is as follows. In a 96-well dish, 1×10^5 Drosophila cells (with or without peptide/protein loaded) or 3T3 cells were cocultured with 1×10^5 B3/CD8 T-cell hybridoma cells in 200 μl of RPMI media supplemented with 10% fetal bovine serum. After 24 hours of incubation, 100 μl of the supernatant from these cultures was added to 100 μl of RPMI containing 5,000 CTLL cells. The cells were cocultured for 24 hours at 37° C. when 1 uCi of ^3H thymidine (Amersham) was added. After a further incubation of 15 hours at 37° C., the incorporation of radiolabel into the CTLL cells was determined by scintillation counting.
# Assays conducted with murine MHC also verified that the insect cells are capable of loading peptide onto the Class I molecules. Cells expressing as few as 200-500 MHC molecules containing a particular antigen can be detected by a T-cell. […] Upon antigenic stimulation, B3/CD8 produces IL-2, measured by ^3H thymidine incorporation in IL-2-dependent T-cell line CTLL (Gillis, et al., J. Immunol. 120: 2027 91978)). Thus, by measuring the amount of IL-2 produced, one can assay for T-cell recognition. […]
# [5] = target: T1, K^bsol (soluble H-2 K^b with murine β-2 microglobulin); format: binding
# HLA B27 = assay: Peptide-induced thermostabilization of HLA B27 on Drosophila cells (W6/32 cytofluorimetry); format: cell-based, human
# Protocol: Twenty-four hours prior to FACS analysis, CuSO4 is added to the stably transfected S2 cells (3-4×10^6 cells/ml) to a final concentration of 1 mM, thereby “switching on” expression from the transfected genes. Cells are plated out in 24-well cluster dishes (2 ml per well). Eight hours prior to FACS analysis, the CuSO4 medium is replaced with fresh medium (1 ml) with or without peptide at a concentration of 50 μg/ml. 37° C. temperature challenges are carried out by transferring the dishes onto a flat surface in a 37° C. room at various time intervals prior to harvesting the cells for analysis.
# To analyze surface expression of Class I MHC on the S2 cells, aliquots of cells (5×10^5) are transferred into tubes on ice, collected by centrifugation (1,000×g for 4 minutes), resuspended in 3 ml of PBS/1% BSA, 0.02% sodium azide, collected by centrifugation and resuspended in PBS/BSA (0.5 ml) containing the appropriate primary antibody (ascites fluids Y3, 28:14:8S, 30.5.7, W6/32, diluted 1:200). Rabbit antisera are diluted 1:500 and B22.293 hybridoma supernatant is used directly. After a one hour incubation on ice, cells are washed twice in 3 ml of PBS/BSA and resuspended in 0.5 ml of PBS/BSA containing FITC labeled secondary antibody (Cappell, Durham, N.C.) and 1 ng/ml propidium iodide. […] Samples are then analyzed by FACS 440 (Becton Dickinson). […]
# 2C+ T-cells [6] = format: cell-based, mouse
# CD8^+ 2C cells [7] = assay: CD69 and CD25 expression on CD8+ 2C cells stimulated with transfected Drosophila cells plus peptide; format: cell-based, mouse; conditions: Drosophila cells expressing L^d alone; peptide 10 μM, 12 hours
# Protocol: TCR stimulation elicited a complex pattern of intracellular events which lead to early up-regulation of CD69 and CD25 (IL-2 receptor or IL-2R) on the cell surface. These changes are apparent within a few hours of stimulation and are followed by cytokine synthesis and cell proliferation. Drosophila cells were transfected with genes for L^d, L^d and B7.1 (L^d.B7), L^d and ICAM-1 (L^d.ICAM) or L^d, B7.1 and ICAM-1 (L^d.B7.1CAM). […] Purified CD8^+ 2C cells were incubated with various Drosophila cells plus a peptide (either p2Ca or QL9, 10 μM) in bulk (2 ml) culture for 12 hours and then stained for CD69 or CD25. Either p2Ca or QL9 presented by Drosophila cells transfected with L^d.B7, L^d.ICAM or L^d.B7.1CAM were effective in stimulating the up-regulation of CD69 and CD25.
# [8] = test system: CD8^+ 2C lymph node cells; assay: IL-2 production by CD8+ 2C lymph node cells (CTLL indicator line 3HTdR); format: cell-based, mouse; conditions: peptide 10 μM
# Protocol: (§1) Using a standard tissue culture system (Cai, Z. and Sprent, J. (1994) J. Exp. Med. 179: 2005-2015), doses of 5×10^4 purified CD8^+ 2C lymph node (LN) cells were cultured at 37° C. with doses of 3×10^5 transfected fly cells ±peptides (10 μM final concentration). Peptides were synthesized by R. W. Johnson Pharmaceutical Research Institute (Sykulev, et al. (1994) Immunity 1: 15-22. Proliferative responses were measured by adding ^3HTdR (1 μCi/well) 8 hours prior to harvest. IL-2 production was measured by removing supernatants from the cultures at 48 hours and adding 50 μl supernatant to an IL-2 responsive indicator cell line (CTLL); proliferation of the indicator line was measured by addition of ^3HTdR. The data shown in Table 2 are the means of triplicate cultures. The transfected Drosophila S2 cells die rapidly at 37° C. and fail to incorporate ^3HTdR at this temperature.
# CD8^+ 2C cells [9] = assay: Dose-response of day 3 proliferation of CD8+ 2C cells to peptides on transfected Drosophila APC; format: cell-based, mouse
# Protocol: Responses to p2Ca (above) and QL9 (below) were measured by culturing 5×10^4 purified CD8^+ 2C cells with 2×10^5 Drosophila cells in the presence or absence of the indicated concentrations of peptides for 3 days. [^3H] TdR was added during the last 8 hours of culture; rIL-2 was added at a final concentration of 20 units/ml. The data are the mean of triplicate cultures. When supplemented with exogenous IL-2, however, both peptides stimulated significant proliferative responses at high doses (10 μM). The proliferative responses elicited by QL9 were far stronger than for p2Ca (note the large difference between the scales of x-axes of the upper and the lower panel).
# Dose-response relationships for proliferation on day 3 elicited by Drosophila cells transfected with L^d.B7.1CAM and presenting p2Ca peptide were compared to those elicited by Drosophila cells transfected with L^d.B7, L^d.ICAM or L^d.B7.1CAM presenting QL9 peptide. Drosophila APC (2×10^5 cells) were cultured with 5×10^4 CD8^+ 2C cells for three days in the presence or absence of peptides. [^3H] TdR was added during the last 8 hours of culture; no IL-2 was added to the cultures.
# 2C+ T-cells [10] = assay: Enrichment of 2C+ T-cells from a 1/99 mixture with C57BL/6 CD8+ cells (1B2 staining, flow cytofluorometry); format: cell-based, mouse
# Protocol: 2C+ T-cells were mixed with total CD8^+ cells from C57BL/6 mice at a 1/99 ratio and cells were cultured with immobilized L^d and anti-CD28 antibody in the presence of peptide QL9. IL-2 was added at day 2 of culture, and subsequently every other day. Cell activation and proliferation was noted, as evidenced by the formation of clumps, presence of enlarged cells that progressively spread in the well. At day 12 of culture, cells were harvested and percentage of cells expressing the 2C T-cell receptor was assessed by staining with the anticlonotypic antibody 1B2 and analysis by flow cytofluorometry: 43% of the cells cultured initially in the presence of peptide QL9 were 2C+, (FIG. 22) whereas 49% of the cells expressed 2C after stimulation with peptide p2Ca (FIG. 23), and 22% with peptide SL9 (FIG. 24). […] Enrichment was observed even with SL9, a peptide that makes a low affinity complex with the 2C T-cell receptor. This method thus can specifically activate and enrich a small subpopulation of antigen specific T-cells out of a heterogenous mixture of T-cells.
# [11] = test system: CD8^+ 2C lymph node cells; assay: Primary proliferative response of CD8+ 2C lymph node cells to peptides presented by transfected fly cells (3HTdR); format: cell-based, mouse; conditions: peptide 10 μM
# Protocol: as §1
# [12] = target: T2, soluble H-2 K^b (K^bsol): heterodimer …
molecule,measurement,setting,value
2C T-cell receptor on T-cells of 2C TCR transgenic mice,"Proliferation (Day 3), ^3HTdR incorporation; fly cells expressing L^d",[1],200 cpm
same,"Proliferation (Day 3), ^3HTdR incorporation; fly cells expressing L^d + B7.1",[1],300 cpm
same,"Proliferation (Day 3), ^3HTdR incorporation; fly cells expressing L^d + ICAM-1",[1],1500 cpm
same,"Proliferation (Day 3), ^3HTdR incorporation; fly cells expressing L^d",[2],200 cpm
same,"Proliferation (Day 3), ^3HTdR incorporation; fly cells expressing L^d + B7.1",[2],60900 cpm
same,"Proliferation (Day 3), ^3HTdR incorporation; fly cells expressing L^d + ICAM-1",[2],73900 cpm
same,percent of the lymphocytes included in rosettes,[3],30% and 40%
same,percent of the lymphocytes included in rosettes,[4],30% and 40%
EQLESIINFEKLTEWTSSNVMEER [OVA-24],T-cell recognition (IL-2 response) of K^b Drosophila cells,B3/CD8 T-cell hybridoma,responded well
same,affinity lower than that of OVA-8,[5],"more than 10,000 fold"
FRIGCRHSR [HIV Vpr peptide],thermostabilization of HLA B27 surface expression,HLA B27,stabilizes B27
ILKEPVHGV [HIV POL peptide],thermostabilization of HLA B27 surface expression,HLA B27,not B27
LSPFPFDL [p2Ca],activation (mitogenesis) of 2C+ T-cells,2C+ T-cells [6],able to activate
same,induction of CD69 and CD25 expression,CD8^+ 2C cells [7],barely detectable
same,"IL-2 Production (Day 2) ^3HTdR incorporation, fly cells expressing L^d",[8]; APC L^d,0.2 cpm × 10^3
same,"IL-2 Production (Day 2) ^3HTdR incorporation, fly cells expressing L^d + B7.1",[8]; APC L^d + B7.1,0.2 cpm × 10^3
same,"IL-2 Production (Day 2) ^3HTdR incorporation, fly cells expressing L^d + B7.1 + ICAM-1",[8]; APC L^d + B7.1 + ICAM-1,64.6 cpm × 10^3
same,"IL-2 Production (Day 2) ^3HTdR incorporation, fly cells expressing L^d + ICAM-1",[8]; APC L^d + ICAM-1,0.1 cpm × 10^3
same,"IL-2 Production (Day 2) ^3HTdR incorporation, L^d + B7.1 combined with L^d + ICAM-1",[8]; mixture of two APC lines,0.3 cpm × 10^3
same,proliferation of 2C CD8+ cells,"CD8^+ 2C cells [9]; Drosophila cells with L^d alone, no exogenous lymphokines",failed
same,peptide concentration required for optimal day 3 proliferative response,"CD8^+ 2C cells [9]; L^d.B7.1CAM APC, no IL-2",10 µM
same,enrichment in specific T-cells after 12 days,2C+ T-cells [10]; start 1/99,49 times
same,cells expressing the 2C T-cell receptor (2C+) at day 12,"2C+ T-cells [10]; start 1/99 2C+/total CD8+, immobilized L^d and anti-CD28, IL-2 from day 2",49%
same,"Proliferation (Day 3) ^3HTdR incorporation, fly cells expressing L^d",[11]; APC L^d,0.2 cpm × 10^3
same,"Proliferation (Day 3) ^3HTdR incorporation, fly cells expressing L^d + B7.1",[11]; APC L^d + B7.1,0.3 cpm × 10^3
same,"Proliferation (Day 3) ^3HTdR incorporation, fly cells expressing L^d + B7.1 + ICAM-1",[11]; APC L^d + B7.1 + ICAM-1,142.0 cpm × 10^3
same,"Proliferation (Day 3) ^3HTdR incorporation, fly cells expressing L^d + ICAM-1",[11]; APC L^d + ICAM-1,1.5 cpm × 10^3
same,"Proliferation (Day 3) ^3HTdR incorporation, L^d + B7.1 combined with L^d + ICAM-1",[11]; mixture of two APC lines,1.5 cpm × 10^3
ovalbumin protein: ovalbumin (Sigma Chem. Co.) osmotically loaded into the cells (EQLESIINFEKLTEWTSSNVMEER),T-cell recognition (IL-2 response) of K^b Drosophila cells,B3/CD8 T-cell hybridoma,no recognition
RGYVYQGL (modifications not checked) [[^125I]VSV-8 (radioiodinated VSV-8 peptide)],percent of the total labeled peptide able to bind,[12],65%
